Among the data in PubChem BioAssay AID1259407 (Chemical Carcinogenesis Research Information System (CCRIS), 2018) are mutagenic call values, retold here.

Calls of active or inactive are those of the source. The rule behind the calls is not given here.

This series deals with CCRIS mutagenicity, Ames/micronucleus/aberration tests. Kind of series: CCRIS mutagenicity studies.
Where [1] appears, read: Test System: AMES SALMONELLA TYPHIMURIUM, Strain/Indicator: TA98, Metabolic Activation: NONE, Method: PREINCUBATION
Where [2] appears, read: Test System: AMES SALMONELLA TYPHIMURIUM, Strain/Indicator: TA100, Metabolic Activation: NONE, Method: PREINCUBATION
[3] abbreviates: Test System: AMES SALMONELLA TYPHIMURIUM, Strain/Indicator: TA98, Metabolic Activation: NONE, Method: STANDARD PLATE.
[4] abbreviates: Test System: AMES SALMONELLA TYPHIMURIUM, Strain/Indicator: TA98, Metabolic Activation: RAT, LIVER, S-9, AROCLOR 1254, Method: STANDARD PLATE.
Setting [5] is: Test System: AMES SALMONELLA TYPHIMURIUM, Strain/Indicator: TA100, Metabolic Activation: NONE, Method: STANDARD PLATE.
The mark [6] stands for this setting: Test System: AMES SALMONELLA TYPHIMURIUM, Strain/Indicator: TA100, Metabolic Activation: RAT, LIVER, S-9, AROCLOR 1254, Method: STANDARD PLATE.
Where [7] appears, read: Test System: AMES SALMONELLA TYPHIMURIUM, Strain/Indicator: TA102, Metabolic Activation: NONE, Method: PREINCUBATION

On to `O=NN1CN2CN(C1)CN(N=O)C2`, for which the mutagenic call (End Point: IN VITRO CHROMOSOMAL ABERRATIONS, Test System: CHL CELLS, Metabolic Activation: RAT, LIVER, S-9, SODIUM PHENOBARBITAL AND 5,6-BENZOFLAVONE) is “active; positive (structural and ploidy changes)”; the mutagenic call under setting [1] is “inactive; negative”; the mutagenic call (Test System: AMES SALMONELLA TYPHIMURIUM, Strain/Indicator: TA98, Metabolic Activation: RAT LIVER S-9, PHENOBARBITAL AND BETA-NAPHTHOFLAVONE, Method: PREINCUBATION) is “inactive; negative”; the mutagenic call under setting [2] is “active; positive”; the mutagenic call (Test System: AMES SALMONELLA TYPHIMURIUM, Strain/Indicator: TA100, Metabolic Activation: RAT LIVER S-9, PHENOBARBITAL AND BETA-NAPHTHOFLAVONE, Method: PREINCUBATION) was “active; positive”; the mutagenic call (Test System: AMES SALMONELLA TYPHIMURIUM, Strain/Indicator: TA1535, Metabolic Activation: NONE, Method: PREINCUBATION) is “inactive; negative”. For the same compound, the mutagenic call is, setting by setting: (Test System: AMES SALMONELLA TYPHIMURIUM, Strain/Indicator: TA1535, Metabolic Activation: RAT LIVER S-9, PHENOBARBITAL AND BETA-NAPHTHOFLAVONE, Method: PREINCUBATION) “inactive; negative”; (Test System: AMES SALMONELLA TYPHIMURIUM, Strain/Indicator: TA1537, Metabolic Activation: NONE, Method: PREINCUBATION) “inactive; negative”; (Test System: AMES SALMONELLA TYPHIMURIUM, Strain/Indicator: TA1537, Metabolic Activation: RAT LIVER S-9, PHENOBARBITAL AND BETA-NAPHTHOFLAVONE, Method: PREINCUBATION) “inactive; negative”; (Test System: AMES SALMONELLA TYPHIMURIUM, Strain/Indicator: TA1538, Metabolic Activation: NONE, Method: PREINCUBATION) “inactive; negative”; (Test System: AMES SALMONELLA TYPHIMURIUM, Strain/Indicator: TA1538, Metabolic Activation: RAT LIVER S-9, PHENOBARBITAL AND BETA-NAPHTHOFLAVONE, Method: PREINCUBATION) “inactive; negative”; (Test System: E.COLI, Strain/Indicator: WP2UVRA, Metabolic Activation: NONE, Method: PREINCUBATION) “inactive; negative”. For the same compound, the mutagenic call (Test System: E.COLI, Strain/Indicator: WP2UVRA, Metabolic Activation: RAT LIVER S-9, PHENOBARBITAL AND BETA-NAPHTHOFLAVONE, Method: PREINCUBATION) is “active; positive”.
Regarding `CC(C)(C)C1=CC(=O)C=CC1=O`, the mutagenic call (Test System: AMES SALMONELLA TYPHIMURIUM, Strain/Indicator: TA97, Metabolic Activation: NONE, Method: PREINCUBATION) is “inactive; negative”; the mutagenic call (Test System: AMES SALMONELLA TYPHIMURIUM, Strain/Indicator: TA97, Metabolic Activation: RAT, LIVER, S-9, PCB, Method: PREINCUBATION) was “inactive; negative”; the mutagenic call under setting [3] is “inactive; negative”; the mutagenic call (Test System: AMES SALMONELLA TYPHIMURIUM, Strain/Indicator: TA98, Metabolic Activation: RAT, LIVER, S-9, AROCLOR 1254, Method: PREINCUBATION) is “inactive; negative”; the mutagenic call under setting [4] was “inactive; negative”; the mutagenic call (Test System: AMES SALMONELLA TYPHIMURIUM, Strain/Indicator: TA98, Metabolic Activation: RAT, LIVER, S-9, PCB, Method: PREINCUBATION) is “inactive; negative”. Moreover, the mutagenic call is, setting by setting: under setting [5], “inactive; negative”; (Test System: AMES SALMONELLA TYPHIMURIUM, Strain/Indicator: TA100, Metabolic Activation: RAT, LIVER, S-9, AROCLOR 1254, Method: PREINCUBATION) “inactive; negative”; under setting [6], “inactive; negative”; (Test System: AMES SALMONELLA TYPHIMURIUM, Strain/Indicator: TA100, Metabolic Activation: RAT, LIVER, S-9, PCB, Method: PREINCUBATION) “inactive; negative”; under setting [7], “inactive; negative”; (Test System: AMES SALMONELLA TYPHIMURIUM, Strain/Indicator: TA102, Metabolic Activation: RAT, LIVER, S-9, PCB, Method: PREINCUBATION) “inactive; negative”. Further, the mutagenic call was “inactive; negative” (Test System: CHINESE HAMSTER V-79, Strain/Indicator: V-79 (HGPRT)/6-THIOGUANINE, Metabolic Activation: NONE) and “inactive; negative” (Test System: CHINESE HAMSTER V-79, Strain/Indicator: V-79 (HGPRT)/6-THIOGUANINE, Metabolic Activation: RAT, LIVER, HEPATOCYTES).
Regarding `CCN(CCCl)CCCNc1c2ccccc2nc2c1ccc1ccccc12`, the mutagenic call is “active; positive” under setting [3]; “active; positive” under setting [5]; “inactive; negative” (Test System: AMES SALMONELLA TYPHIMURIUM, Strain/Indicator: TA1535, Metabolic Activation: NONE, Method: STANDARD PLATE); “active; positive” (Test System: AMES SALMONELLA TYPHIMURIUM, Strain/Indicator: TA1536, Metabolic Activation: NONE, Method: STANDARD PLATE); “active; positive” (Test System: AMES SALMONELLA TYPHIMURIUM, Strain/Indicator: TA1537, Metabolic Activation: NONE, Method: STANDARD PLATE); “active; positive” (Test System: AMES SALMONELLA TYPHIMURIUM, Strain/Indicator: TA1538, Metabolic Activation: NONE, Method: STANDARD PLATE). Besides, under “Test System: CHO/HGPRT, Strain/Indicator: CHO-K1-BH4, Metabolic Activation: NONE, Method: STANDARD PLATE”, the mutagenic call is “active; positive”.
As for `c1ccc(COC[C@H]2CO2)cc1`, the mutagenic call under setting [5] was “active; positive”.
As to `Oc1ccc2c(O)cccc2c1`, the mutagenic call under setting [7] is “active; positive” and the mutagenic call (Test System: AMES SALMONELLA TYPHIMURIUM, Strain/Indicator: TA2637, Metabolic Activation: RAT, LIVER, S-9, PHENOBARBITAL AND 5,6-BENZOFLAVONE, Method: PREINCUBATION) is “active; positive”.
For `O=[N+]([O-])c1cc(Cl)cc(Cl)c1O`, the mutagenic call runs as follows: under setting [1], “inactive; negative”; under setting [3], “inactive; negative”; under setting [2], “inactive; negative”; under setting [5], “inactive; negative”; (Test System: CHINESE HAMSTER V-79, Strain/Indicator: V-79/6-THIOGUANINE, Metabolic Activation: NONE) “inactive; negative”.
With `Oc1cc2ccccc2c2ccc3ccccc3c12`, the mutagenic call reads like this: under setting [3], “inactive; negative”; under setting [4], “inactive; negative”; under setting [5], “inactive; negative”; under setting [6], “inactive; negative”.
